From patent US10240124B2, “Cell culture substrate comprising a laminin and a cadherin” (BioLamina AB, priority 2011, dated 2019)

Key:
[1] = system: SCID mouse; assay: Teratoma formation; format: in vivo; conditions: HS181 13 passages, H1 12 passages in O3; H1 7 passages in TeSR2
Procedure: Teratoma formation experiments were performed by implantation of approximately 10^6 cells beneath the testicular capsule of a young (7-week-old) severe combined immunodeficiency (SCID) mouse. Three animals per each cell line were used. Teratoma growth was observed by weekly palpation, and the mice were sacrificed eight weeks after the implantation. The teratomas were fixed, and sections were stained with hematoxylin and eosin (HE) or with hematoxylin, eosin and PAS (HE-PAS). […] All animal experiments were performed at the infection-free animal facility of the Karolinska University Hospital in accordance with ethical committee approval.

[2] = system: ES cells; assay: Embryoid body formation; format: cell-based, human; conditions: same three cultures as teratoma test
Procedure: ES cells from LN-521 coated cell culture dishes were exposed to TrypLE™Select for one minute at 37° C., 5% CO2, washes two times with a medium, broken into large pieces and cultured in suspension in low adhesion plates. The medium used for this was Knockout DMEM (GIBCO Invitrogen Corporation) supplemented with 2 mM L-glutamine, 20% fetal calf serum (GIBCO Invitrogen Corporation), 0.1 mM β-mercaptoethanol (GIBCO Invitrogen Corporation) and 1% non-essential amino acids (GIBCO Invitrogen Corporation). After 1-2 weeks in suspension, the embryoid bodies were transferred onto gelatin coated tissue cell culture 96-well plates (Sarstedt), cultured for 1-2 weeks, then fixed, stained with antibodies against markers of all three embryonic germ line layers (smooth muscle actin, MAP-2 and α-fetoprotein) and analyzed as described above for immunofluorescence.

[3] = system: Human ES cells; assay: FACS analysis for OCT4 (Example 1); format: cell-based; conditions: after several single cell suspension passages, O3 medium, FIG. 9 and 10
Procedure: OCT4 expression was analyzed as described in Ludwig, T. E. et al. Derivation of human embryonic stem cells in defined conditions. Nat. Biotechnol. 24, 185-187 (2006). Cells were run on FACSCalibur Flow Cytometer (Becton Dickinson). Data were analyzed with CellQuest software (Becton Dickinson).

[4] = system: hES cells; assay: Expression of pluripotency and differentiation markers (RT-PCR, FACS, immunofluorescence); format: cell-based, human; conditions: compared with cells on Matrigel passed as small clumps
Procedure: For immunofluorescence studies, ES cells were cultured and fixed in 8-well slide chambers (BD Biosciences) or 96-well plate wells by 4% paraformaldehyde, permeabilized by 0.1% Triton-X and blocked by 10% bovine fetal serum (GIBCO Invitrogen Corporation) in phosphate-saline buffer (PBS) containing 0.1% Tween-20 (Sigma-Aldrich, St. Louis, http://www.sigmaaldrich.com) for one hour. Incubation with primary antibody was performed for 1.5 hours at room temperature. Incubation with secondary antibody and 4,6-diamidino-2-phenylindole (DAPI, Molecular Probes) was performed for 40 minutes. Between incubations, the specimens were washed with 0.1% Tween-20 in PBS buffer three to five times. Specimens were preserved in a fluorescence mounting medium (Dako, Glostrup, Denmark, http://www.dako.com), and observed under a fluorescence microscope (Leica, Heerbrugg, Switzerland, http://www.leica.com).
Total RNA was isolated using Absolutely RNA Microprep Kit (Stratagene, La Jolla Calif., www.stratagene.com) according to the manufacturer's instructions. cDNA was synthesized using 0.2 μg of total RNA in 20 μl reaction mixture, containing oligo(dT)12-18 primers and Superscript II reverse transcriptase (GIBCO Invitrogen Corporation), according to the manufacturer's instructions. […] All data was analyzed with 7300 System SDS Software v 1.4. […]

[5] = system: hES cells; assay: In vivo imaging and migration assay; format: cell-based, human
Procedure: 24-well plates were coated by extracellular matrix proteins and blocked by O3 medium containing bovine serum albumin. The ES cells were plated at cell density of 30,000-40,000 cells/cm^2 onto extracellular matrix-coated plates and left to adhere for half an hour in a cell incubator. After that, the plate was transferred into high content imaging system Operetta (PerkinElmer) equipped with environmental control unit, which allowed to keep 37° C., 5% CO2. For two movies that were made, the brightfield images were taken once in 15 minutes during 24 hours after plating using Harmony software (PerkinElmer), exported, and analyzed using ImageJ software (NIH, the US). For migration assay the images were taken every seven minutes during 18 hours after plating. Images acquired between the fifth and seventh hours after plating were analyzed using MTrackJ plug-in (University Medical Center, Rotterdam, The Netherlands). 100 attached cells on each coating were traced and mean distances from the current to the previous point of the track were calculated. Error bars show standard error of the mean s.e.m. (n=100).

[6] = system: hES cells; assay: Cell adhesion assay, 1 hour (Example 2); format: cell-based, human; conditions: compared with Matrigel or LN-111, not shown
Procedure: Tissue cell culture plates were coated overnight at 4° C. with sterile solutions of the ECM proteins, such as human recombinant LN-521, all at a concentration of 30 μg/ml (5 μg/cm^2). Control plates were coated with Matrigel according to the STEMCELL Technologies' instructions. Prior to use, dishes were pre-warmed in an incubator for one hour after which prewarmed O3 medium was added without additional washing of the dish. After applying a fresh LN-521 solution to a new dish, the remaining LN-521 solution could be used at least once more. All the adhesion, survival, and inhibition of survival experiments were carried out using fresh coating materials.
Briefly, 96-well plates were coated by extracellular matrix proteins as described above and blocked by O3 medium containing bovine serum albumin. The ES cells were plated at cell density of 50,000 cells/cm^2 onto extracellular matrix-coated plates and left to adhere for 1 hour in a cell incubator. After that the plates were washed 3 times with the medium to remove the non-adherent cells, and then the adherent cells were fixed for 20 minutes by 5% glutaraldehyde, stained by 0.1% Crystal Violet. (Kebo Lab, Spanga, Sweden, http://www.kebolab.se). After one hour and 3 washes with water, Crystal Violet was extracted with 10% acetic acid and quantified by measuring optical density at 570 nm. All the experiments were performed in quadruplicate.

In the case of “LN-521: protein formed by joining α5, β2 and γ1 laminin chains; human recombinant, produced in HEK293 cells”, the “histology of teratomas formed in SCID mice” value [1] is reported as “development of tissues containing all three germ lineages”, the “differentiation in vitro, embryoid bodies expressing markers of mesoderm, ectoderm and endoderm” value [2] is reported as “retained the competence to form embryoid bodies” and the “percentage of Oct4 positive (pluripotent) cells compared with Matrigel” value [3] is reported as “much higher percentage”. For the same substance, the “expression levels of pluripotency markers Oct4, Nanog and SSEA4” value [4] was “stable expression levels”, the “cell migration by imaging compared with Matrigel” value ([5]; 24 hours imaging) was “much faster” and the “motility of hES cells compared with other coatings” value ([5]; between the fifth and seventh hours after plating, FIG. 14) was “higher than that of the cells on other coatings”. The “spreading of the cells after one hour” value [6] was “clearly better”.
